From ChEMBL document CHEMBL4680271, “COVID-19: Drug Targets and Potential Treatments” (J Med Chem, 2020)

Test: Inhibition of CTSL/CTSB in 293T/17 cells harboring ACE2 assessed as reduction in SARS-CoV-2 S pseudovirions entry into host cell incubated for 2 days by luciferase method
Assay type: cell-based
Conditions: Severe acute respiratory syndrome-related coronavirus, HEK293T/17, 48 h

SMILES	IC50 [nM]
CC(C)(C)N1CCN(C(=O)N[C@@H](Cc2ccccc2)C(=O)N[C@H](/C=C/S(=O)(=O)c2ccccc2)CCc2ccccc2)CC1	0.08
CN1CCN(C(=O)N[C@@H](Cc2ccccc2)C(=O)N[C@H](/C=C/S(=O)(=O)c2ccccc2)CCc2ccccc2)CC1 [K-777]	0.32
